According to ChEMBL document CHEMBL1909046, “DrugMatrix in vitro pharmacology data”:

Key:
[1] = biological target: Protein kinase C alpha type (Homo sapiens, UniProt P17252); assay type: cell-based; details: sf9;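 further: inhibition of PKCalpha kinase activity measured in an enzyme assay with histone as the phosphorylation substrate; in other assays of this panel Not Active means under 50% inhibition at 10 µM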
Leukotriene C4 synthase = biological target: T1, Leukotriene C4 synthase (Cavia porcellus, UniProt A6XA80); experiment: biochemical; assay type: tissue-based, Lung;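 further: enzyme inhibition assay of leukotriene C4 synthase, using LTA4 as the substrate; in other assays of this panel Not Active means under 50% inhibition at 10 µM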
T1 sequence (A6XA80 whole entry): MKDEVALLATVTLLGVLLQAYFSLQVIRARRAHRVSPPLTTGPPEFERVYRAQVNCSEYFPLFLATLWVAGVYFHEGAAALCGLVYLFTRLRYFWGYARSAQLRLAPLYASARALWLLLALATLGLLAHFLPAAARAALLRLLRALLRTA

[2] = DRUGMATRIX: Nicotinic Acetylcholine radioligand binding (ligand: [125I] Epibatidine); assay type: cell membranes, Membrane; details: imr-32; Not Active = under 50% inhibition at 10 µM
Cytochrome P450 1A2 = biological target: T2, Cytochrome P450 1A2 (Homo sapiens, UniProt P05177); details: bti-tn-5b1-4; further: in other assays of this panel Not Active means under 50% inhibition at 10 µM
T2 sequence (P05177 whole entry): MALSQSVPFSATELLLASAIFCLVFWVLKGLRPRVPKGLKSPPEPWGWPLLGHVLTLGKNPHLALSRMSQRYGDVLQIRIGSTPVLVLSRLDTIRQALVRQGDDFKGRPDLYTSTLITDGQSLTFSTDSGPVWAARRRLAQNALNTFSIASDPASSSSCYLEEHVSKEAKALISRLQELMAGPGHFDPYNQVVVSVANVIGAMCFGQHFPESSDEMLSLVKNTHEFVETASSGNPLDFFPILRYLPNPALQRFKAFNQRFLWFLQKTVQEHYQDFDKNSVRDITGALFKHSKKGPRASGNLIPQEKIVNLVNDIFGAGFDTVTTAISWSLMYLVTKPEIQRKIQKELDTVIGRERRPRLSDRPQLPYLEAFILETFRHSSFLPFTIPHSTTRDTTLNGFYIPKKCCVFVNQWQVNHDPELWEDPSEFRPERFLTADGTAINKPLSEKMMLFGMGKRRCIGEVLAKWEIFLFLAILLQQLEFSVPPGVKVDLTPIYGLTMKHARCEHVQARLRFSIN

[3] = biological target: T3, Nitric oxide synthase, inducible (Mus musculus, UniProt P29477); parameters: species or system Escherichia coli;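 further: inhibition of iNOS enzyme activity measured with L-arginine as substrate; in other assays of this panel Not Active means under 50% inhibition at 10 µM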
T3 sequence (P29477 whole entry): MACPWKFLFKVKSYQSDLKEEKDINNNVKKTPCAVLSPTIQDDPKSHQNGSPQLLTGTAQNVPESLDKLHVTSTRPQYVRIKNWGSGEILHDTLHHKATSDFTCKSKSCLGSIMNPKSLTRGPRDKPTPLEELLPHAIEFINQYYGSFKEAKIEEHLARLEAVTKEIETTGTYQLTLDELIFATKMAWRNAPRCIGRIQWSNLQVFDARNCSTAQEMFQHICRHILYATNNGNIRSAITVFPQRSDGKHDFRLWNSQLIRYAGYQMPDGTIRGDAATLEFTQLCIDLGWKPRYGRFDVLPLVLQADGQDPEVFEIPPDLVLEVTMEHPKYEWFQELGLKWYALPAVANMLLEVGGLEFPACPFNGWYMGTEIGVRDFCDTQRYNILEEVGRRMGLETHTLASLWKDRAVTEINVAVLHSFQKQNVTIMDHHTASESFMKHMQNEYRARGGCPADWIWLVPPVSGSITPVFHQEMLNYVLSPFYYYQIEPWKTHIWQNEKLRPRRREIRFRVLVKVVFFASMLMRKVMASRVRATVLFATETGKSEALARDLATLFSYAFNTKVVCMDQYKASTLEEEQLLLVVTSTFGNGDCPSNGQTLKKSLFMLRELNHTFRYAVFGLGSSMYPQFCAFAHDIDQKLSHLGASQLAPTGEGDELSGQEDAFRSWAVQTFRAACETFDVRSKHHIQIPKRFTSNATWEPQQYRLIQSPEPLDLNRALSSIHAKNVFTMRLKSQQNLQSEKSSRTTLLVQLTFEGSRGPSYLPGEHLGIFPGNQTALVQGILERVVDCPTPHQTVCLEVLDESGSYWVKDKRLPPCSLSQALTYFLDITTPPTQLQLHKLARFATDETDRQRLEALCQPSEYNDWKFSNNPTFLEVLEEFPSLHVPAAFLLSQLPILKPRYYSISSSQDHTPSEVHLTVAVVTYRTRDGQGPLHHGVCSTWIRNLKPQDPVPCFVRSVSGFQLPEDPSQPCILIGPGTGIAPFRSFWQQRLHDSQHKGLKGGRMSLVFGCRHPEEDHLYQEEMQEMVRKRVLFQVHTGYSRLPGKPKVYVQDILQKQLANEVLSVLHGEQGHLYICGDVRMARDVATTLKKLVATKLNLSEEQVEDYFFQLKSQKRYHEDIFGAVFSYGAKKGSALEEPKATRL

[4] = DRUGMATRIX: Glutamate, Kainate radioligand binding (ligand: [3H] Kainic acid); assay type: cell membranes, Rattus norvegicus, Wistar, Brain, Membrane; details: Not Active = under 50% inhibition at 10 µM

C=C(C)[C@@H]1[C@H]2OC(=O)[C@@H]1[C@]1(O)C[C@H]3O[C@]34C(=O)O[C@H]2[C@]14C [PICROTOXININ]
Not Active: IC50 [1] | IC50 (Leukotriene C4 synthase) | IC50 [2] | Ki [2] | IC50 (Cytochrome P450 1A2) | Ki (Cytochrome P450 1A2) | IC50 [3] | IC50 [4] | Ki [4]

CN1C(C(=O)Nc2ccccn2)=C(O)c2ccccc2S1(=O)=O [PIROXICAM]
Not Active: IC50 [1] | IC50 (Leukotriene C4 synthase) | IC50 [2] | Ki [2] | IC50 (Cytochrome P450 1A2) | Ki (Cytochrome P450 1A2) | IC50 [3] | IC50 [4] | Ki [4]

CCC1(c2ccccc2)C(=O)NCNC1=O [PRIMIDONE]
Not Active: IC50 [1] | IC50 (Leukotriene C4 synthase) | IC50 [2] | Ki [2] | IC50 (Cytochrome P450 1A2) | Ki (Cytochrome P450 1A2) | IC50 [3] | IC50 [4] | Ki [4]

CCCc1cc(=O)[nH]c(=S)[nH]1 [PROPYLTHIOURACIL]
Not Active: IC50 [1] | IC50 (Leukotriene C4 synthase) | IC50 [2] | Ki [2] | IC50 (Cytochrome P450 1A2) | Ki (Cytochrome P450 1A2) | IC50 [3] | IC50 [4] | Ki [4]

COc1ccc(CN(CCN(C)C)c2ccccn2)cc1 [PYRILAMINE]
Not Active: IC50 [1] | IC50 (Leukotriene C4 synthase) | IC50 [2] | Ki [2] | IC50 (Cytochrome P450 1A2) | Ki (Cytochrome P450 1A2) | IC50 [3] | IC50 [4] | Ki [4]

CARBOPLATIN
Not Active: IC50 [1] | Ki [1] | IC50 (Leukotriene C4 synthase) | Ki (Leukotriene C4 synthase) | IC50 [2] | Ki [2] | IC50 (Cytochrome P450 1A2) | Ki (Cytochrome P450 1A2) | IC50 [3] | Ki [3] | IC50 [4] | Ki [4]

CISPLATIN
Not Active: IC50 [1] | Ki [1] | IC50 (Leukotriene C4 synthase) | Ki (Leukotriene C4 synthase) | IC50 [2] | Ki [2] | IC50 (Cytochrome P450 1A2) | Ki (Cytochrome P450 1A2) | IC50 [3] | Ki [3] | IC50 [4] | Ki [4]

GOLD SODIUM THIOMALATE
Not Active: IC50 [1] | Ki [1] | IC50 (Leukotriene C4 synthase) | Ki (Leukotriene C4 synthase) | IC50 [2] | Ki [2] | IC50 (Cytochrome P450 1A2) | Ki (Cytochrome P450 1A2) | IC50 [3] | Ki [3] | IC50 [4] | Ki [4]

OXALIPLATIN
Not Active: IC50 [1] | Ki [1] | IC50 (Leukotriene C4 synthase) | Ki (Leukotriene C4 synthase) | IC50 [2] | Ki [2] | IC50 (Cytochrome P450 1A2) | Ki (Cytochrome P450 1A2) | IC50 [3] | Ki [3] | IC50 [4] | Ki [4]
